Measured values taken from patent US9567339B2, “Primary carboxamides as BTK inhibitors” (AbbVie Inc., priority 2013, dated 2017).
Read-outs that look alike come from different tables or passages of the source.

Biological target: BTK, recombinant human catalytic domain (aa 393-659) (Homo sapiens (Human), UniProt Q06187)
Experiment: In vitro BTK kinase activity measured by time-resolved fluorescence resonance energy transfer (trFRET)
Type: biochemical
Settings: read-out: Btk IC50
[1] = trFRET, 0.001 mM ATP, biotin-TYR1 peptide substrate

BTK, recombinant human catalytic domain (aa 393-659), sequence (Q06187 393-659): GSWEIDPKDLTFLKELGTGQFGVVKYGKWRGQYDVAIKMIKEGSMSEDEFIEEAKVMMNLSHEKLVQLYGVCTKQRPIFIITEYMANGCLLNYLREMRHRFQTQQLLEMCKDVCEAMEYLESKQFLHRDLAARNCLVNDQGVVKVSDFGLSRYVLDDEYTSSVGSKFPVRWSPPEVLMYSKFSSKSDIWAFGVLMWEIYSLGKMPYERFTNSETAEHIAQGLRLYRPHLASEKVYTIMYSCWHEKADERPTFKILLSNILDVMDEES

Compound	IC50 [1] [nM]	IC50 [nM]
C=C(CN1CCOCC1)C(=O)Nc1cccc(-c2ccc(C(N)=O)c3[nH]ccc23)c1 [D.6.2]	< 100	
C/C=C(/C)C(=O)Nc1cccc(-c2ccc(C(N)=O)c3[nH]c(C4=CCN(S(C)(=O)=O)CC4)cc23)c1C [D.7.1]		< 100
Cc1c(NC(=O)C(C)Cl)cccc1-c1ccc(C(N)=O)c2[nH]c(C3=CCN(S(C)(=O)=O)CC3)cc12 (centres unmarked) [D.7.8]		< 100
C/C=C/C(=O)Nc1cccc(-c2ccc(C(N)=O)c3[nH]c(C4=CCN(S(C)(=O)=O)CC4)cc23)c1C [D.7.9]		< 100
Cc1c(NC(=O)/C=C\C(N)=O)cccc1-c1ccc(C(N)=O)c2[nH]c(C3=CCN(S(C)(=O)=O)CC3)cc12 [D.7.10]		< 100
Cc1c(NC(=O)CCN2CCCC2)cccc1-c1ccc(C(N)=O)c2[nH]c(C3=CCN(S(C)(=O)=O)CC3)cc12 [D.7.12]		< 100
Cc1c(NC(=O)COc2ccc(C#N)cc2)cccc1-c1ccc(C(N)=O)c2[nH]c(C3=CCN(S(C)(=O)=O)CC3)cc12 [D.7.13]		< 100
Cc1c(NC(=O)COc2cccnc2)cccc1-c1ccc(C(N)=O)c2[nH]c(C3=CCN(S(C)(=O)=O)CC3)cc12 [D.7.14]		< 100
Cc1c(NC(=O)C2=CCCC2)cccc1-c1ccc(C(N)=O)c2[nH]c(C3=CCN(S(C)(=O)=O)CC3)cc12 [D.7.15]		< 100
COC(=O)/C=C/C(=O)Nc1cccc(-c2ccc(C(N)=O)c3[nH]c(C4=CCN(S(C)(=O)=O)CC4)cc23)c1C [D.7.18]		< 100
Cc1c(NC(=O)C2=CCCCC2)cccc1-c1ccc(C(N)=O)c2[nH]c(C3=CCN(S(C)(=O)=O)CC3)cc12 [D.7.19]		< 100
CCOC(=O)/C=C/C(=O)Nc1cccc(-c2ccc(C(N)=O)c3[nH]c(C4=CCN(S(C)(=O)=O)CC4)cc23)c1C [D.7.20]		< 100
Cc1c(NC(=O)CF)cccc1-c1ccc(C(N)=O)c2[nH]c(C3=CCN(S(C)(=O)=O)CC3)cc12 [D.7.22]		< 100
Cc1c(NC(=O)COc2ccccn2)cccc1-c1ccc(C(N)=O)c2[nH]c(C3=CCN(S(C)(=O)=O)CC3)cc12 [D.7.24]		< 100
Cc1c(NC(=O)CCN2CCN(C)CC2)cccc1-c1ccc(C(N)=O)c2[nH]c(C3=CCN(S(C)(=O)=O)CC3)cc12 [D.7.27]		< 100
Cc1c(NC(=O)COc2cccnn2)cccc1-c1ccc(C(N)=O)c2[nH]c(C3=CCN(S(C)(=O)=O)CC3)cc12 [D.7.28]		< 100

Compound	IC50 [1] [nM]	IC50 [nM]
Cc1c(NC(=O)C2CCCCC2)cccc1-c1ccc(C(N)=O)c2[nH]c(C3=CCN(S(C)(=O)=O)CC3)cc12 [D.7.29]		< 100
Cc1nc(C(=O)Nc2cccc(-c3ccc(C(N)=O)c4[nH]c(C5=CCN(S(C)(=O)=O)CC5)cc34)c2C)cs1 [D.7.30]		< 100
Cc1c(NC(=O)C2CCCC2)cccc1-c1ccc(C(N)=O)c2[nH]c(C3=CCN(S(C)(=O)=O)CC3)cc12 [D.7.31]		< 100
Cc1cnc(C(=O)Nc2cccc(-c3ccc(C(N)=O)c4[nH]c(C5=CCN(S(C)(=O)=O)CC5)cc34)c2C)s1 [D.7.32]		< 100
Cc1c(NC(=O)CC(C)C)cccc1-c1ccc(C(N)=O)c2[nH]c(C3=CCN(S(C)(=O)=O)CC3)cc12 [D.7.35]		< 100
Cc1c(NC(=O)/C=C/c2cnn(C)c2)cccc1-c1ccc(C(N)=O)c2[nH]ccc12 [D.8.2]	100 to 1000	
Cc1c(NC(=O)/C=C/C(C)C)cccc1-c1ccc(C(N)=O)c2[nH]ccc12 [D.8.8]	100 to 1000	
C=C(C)C(=O)Nc1cccc(-c2ccc(C(N)=O)c3[nH]ccc23)c1C [D.8.10]	1000 to 10000	
CC(=O)Nc1cccc(-c2ccc(C(N)=O)c3[nH]ccc23)c1C [D.8.12]	1000 to 10000	
Cc1c(NC(=O)CCN2CCOCC2)cccc1-c1ccc(C(N)=O)c2[nH]ccc12 [D.8.13]	1000 to 10000	
CCNC(=O)/C=C\C(=O)Nc1cccc(-c2ccc(C(N)=O)c3[nH]ccc23)c1C [D.8.15]	< 100	
COCCNC(=O)/C=C\C(=O)Nc1cccc(-c2ccc(C(N)=O)c3[nH]ccc23)c1 [D.9.1]	100 to 1000	
CCNC(=O)/C=C\C(=O)Nc1cccc(-c2ccc(C(N)=O)c3[nH]ccc23)c1 [D.9.2]	< 100	
C=CC(=O)Nc1cccc(-c2ccc(C(N)=O)c3[nH]c(C4=CCC(F)(F)CC4)cc23)c1C [E.1, 4-(3-Acrylamido-2-methylphenyl)-2-(4,4-difluorocyclohex-1-en-1-yl)-1H-indole-7-carboxamide]	< 100	
C=CC(=O)N(C)c1cccc(-c2ccc(C(N)=O)c3[nH]ccc23)c1 [E.1.5]		< 100
C=CC(=O)Nc1cccc(-c2ncc(C(N)=O)c3[nH]ccc23)c1 [E.1.10]		< 100

The remaining lines, values ahead:

IC50 [1] [nM]	IC50 [nM]	Compound
100 to 1000		CC(=O)N1CCC(c2cc3c(-c4cccc(NC(=O)c5ccc(C6CC6)cc5)c4C)ccc(C(N)=O)c3[nH]2)CC1 [D.5.1]
< 100		C=C(CN(C)C)C(=O)Nc1cccc(-c2ccc(C(N)=O)c3[nH]ccc23)c1 [D.6.1]
	< 100	Cc1c(NC(=O)/C=C/CN(C)C)cccc1-c1ccc(C(N)=O)c2[nH]c(C3=CCN(S(C)(=O)=O)CC3)cc12 [D.7.2]
	100 to 1000	Cc1c(NC(=O)CCN2CCCCC2)cccc1-c1ccc(C(N)=O)c2[nH]c(C3=CCN(S(C)(=O)=O)CC3)cc12 [D.7.3]
	< 100	Cc1c(NC(=O)CC#N)cccc1-c1ccc(C(N)=O)c2[nH]c(C3=CCN(S(C)(=O)=O)CC3)cc12 [D.7.4]
	< 100	C=C(C)C(=O)Nc1cccc(-c2ccc(C(N)=O)c3[nH]c(C4=CCN(S(C)(=O)=O)CC4)cc23)c1C [D.7.5]
	< 100	C=CC(=O)Nc1cccc(-c2ccc(C(N)=O)c3[nH]c(C4=CCN(S(C)(=O)=O)CC4)cc23)c1C [D.7.6]
	< 100	Cc1c(NC(=O)C(F)(F)Cl)cccc1-c1ccc(C(N)=O)c2[nH]c(C3=CCN(S(C)(=O)=O)CC3)cc12 [D.7.7]
	< 100	Cc1c(NC(=O)COc2ccc(F)cc2)cccc1-c1ccc(C(N)=O)c2[nH]c(C3=CCN(S(C)(=O)=O)CC3)cc12 [D.7.11]
	< 100	CC/C=C(\C)C(=O)Nc1cccc(-c2ccc(C(N)=O)c3[nH]c(C4=CCN(S(C)(=O)=O)CC4)cc23)c1C [D.7.16]
	< 100	Cc1c(NC(=O)/C=C\Cl)cccc1-c1ccc(C(N)=O)c2[nH]c(C3=CCN(S(C)(=O)=O)CC3)cc12 [D.7.17]
	< 100	Cc1c(NC(=O)COc2ccccc2)cccc1-c1ccc(C(N)=O)c2[nH]c(C3=CCN(S(C)(=O)=O)CC3)cc12 [D.7.21]
	< 100	Cc1c(NC(=O)CCN(C)C)cccc1-c1ccc(C(N)=O)c2[nH]c(C3=CCN(S(C)(=O)=O)CC3)cc12 [D.7.23]
	< 100	Cc1c(NC(=O)/C=C/C(N)=O)cccc1-c1ccc(C(N)=O)c2[nH]c(C3=CCN(S(C)(=O)=O)CC3)cc12 [D.7.25]
	< 100	CCC(Cl)C(=O)Nc1cccc(-c2ccc(C(N)=O)c3[nH]c(C4=CCN(S(C)(=O)=O)CC4)cc23)c1C (centres unmarked) [D.7.26]
	< 100	Cc1c(NC(=O)C2CCOCC2)cccc1-c1ccc(C(N)=O)c2[nH]c(C3=CCN(S(C)(=O)=O)CC3)cc12 [D.7.33]
	< 100	COC1CCCC(C(=O)Nc2cccc(-c3ccc(C(N)=O)c4[nH]c(C5=CCN(S(C)(=O)=O)CC5)cc34)c2C)C1 (centres unmarked) [D.7.34]
	< 100	Cc1c(NC(=O)C2CCN(C)CC2)cccc1-c1ccc(C(N)=O)c2[nH]c(C3=CCN(S(C)(=O)=O)CC3)cc12 [D.7.36]
	100 to 1000	Cc1c(NC(=O)C2CCCN(C)C2)cccc1-c1ccc(C(N)=O)c2[nH]c(C3=CCN(S(C)(=O)=O)CC3)cc12 (centres unmarked) [D.7.37]
	< 100	Cc1c(NC(=O)c2cnsc2)cccc1-c1ccc(C(N)=O)c2[nH]c(C3=CCN(S(C)(=O)=O)CC3)cc12 [D.7.38]
	< 100	Cc1c(NC(=O)c2cccnc2)cccc1-c1ccc(C(N)=O)c2[nH]c(C3=CCN(S(C)(=O)=O)CC3)cc12 [D.7.39]

IC50 [1] [nM]	IC50 [nM]	Compound
	< 100	Cc1c(NC(=O)C(C)C)cccc1-c1ccc(C(N)=O)c2[nH]c(C3=CCN(S(C)(=O)=O)CC3)cc12 [D.7.40]
	< 100	CCC(=O)Nc1cccc(-c2ccc(C(N)=O)c3[nH]c(C4=CCN(S(C)(=O)=O)CC4)cc23)c1C [D.7.41]
< 100		CCOC(=O)/C=C/C(=O)Nc1cccc(-c2ccc(C(N)=O)c3[nH]ccc23)c1C [D.8.1]
100 to 1000		Cc1c(NC(=O)/C=C/c2ccccn2)cccc1-c1ccc(C(N)=O)c2[nH]ccc12 [D.8.3]
100 to 1000		Cc1c(NC(=O)/C=C/c2cccnc2)cccc1-c1ccc(C(N)=O)c2[nH]ccc12 [D.8.4]
100 to 1000		Cc1c(NC(=O)/C=C/c2nccs2)cccc1-c1ccc(C(N)=O)c2[nH]ccc12 [D.8.5]
100 to 1000		Cc1c(NC(=O)/C=C/C2CC2)cccc1-c1ccc(C(N)=O)c2[nH]ccc12 [D.8.6]
100 to 1000		C=C(C(=O)Nc1cccc(-c2ccc(C(N)=O)c3[nH]ccc23)c1C)c1ccccc1 [D.8.7]
100 to 1000		C/C=C/C(=O)Nc1cccc(-c2ccc(C(N)=O)c3[nH]ccc23)c1C [D.8.9]
1000 to 10000		C=C(CC)C(=O)Nc1cccc(-c2ccc(C(N)=O)c3[nH]ccc23)c1C [D.8.11]
1000 to 10000		Cc1c(NC(=O)CCN2CCCC2)cccc1-c1ccc(C(N)=O)c2[nH]ccc12 [D.8.14]
< 100		C#CC(=O)N1CC(N(C)c2ccc(C(N)=O)c3[nH]c(C)cc23)C1 [D.10.1]
	< 100	C=CC(=O)NCc1ccccc1-c1ccc(C(N)=O)c2[nH]c(C3=CCN(S(C)(=O)=O)CC3)cc12 [E.1.1]
	1000 to 10000	C=CC(=O)Nc1ccccc1-c1ccc(C(N)=O)c2[nH]ccc12 [E.1.2]
	< 100	C=CC(=O)Nc1cc(-c2ccc(C(N)=O)c3[nH]ccc23)ccn1 [E.1.3]
	< 100	C=CC(=O)Nc1cncc(-c2ccc(C(N)=O)c3[nH]ccc23)c1 [E.1.4]
	< 100	C=CC(=O)N(Cc1nccs1)c1cccc(-c2ccc(C(N)=O)c3[nH]c(C4=CCN(S(C)(=O)=O)CC4)cc23)c1C [E.1.7]
	100 to 1000	C=CC(=O)Nc1cc(-c2ccc(C(N)=O)c3[nH]ccc23)ccc1OC [E.1.8]
	< 100	C=CC(=O)Nc1cccc(-c2ncc(C(N)=O)c3[nH]ccc23)c1C [E.1.9]
	< 100	C=CC(=O)N[C@@H]1CCCN(c2ccc(C(N)=O)c3[nH]c(C4=CCN(S(C)(=O)=O)CC4)cc23)C1 [E.1.11*]
	1000 to 10000	C=CC(=O)Nc1cc(-c2ccc(C(N)=O)c3[nH]ccc23)ccc1OCc1ccccc1 [E.1.12]
